Results: patent publication US20090311217A1, “3-SUBSTITUTED-1H-INDOLE COMPOUNDS, THEIR USE AS MTOR KINASE AND PI3 KINASE INHIBITORS, AND THEIR SYNTHESES” (priority 2008, published 2009)

Tests used:
PI3K-alpha = PI3K-alpha (Homo sapiens, UniProt P42336); experiment: PI3K-alpha fluorescence polarization assay; assay type: biochemical; conditions: read-out: PI3Kα Avg. IC50
PI3K-gamma = PI3K-gamma (Homo sapiens, UniProt P48736); experiment: PI3K-gamma fluorescence polarization assay; assay type: biochemical; conditions: PI3Kγ Avg. IC50
Chain of PI3K-gamma (P48736 whole entry, species assumed, the tested form may be a part): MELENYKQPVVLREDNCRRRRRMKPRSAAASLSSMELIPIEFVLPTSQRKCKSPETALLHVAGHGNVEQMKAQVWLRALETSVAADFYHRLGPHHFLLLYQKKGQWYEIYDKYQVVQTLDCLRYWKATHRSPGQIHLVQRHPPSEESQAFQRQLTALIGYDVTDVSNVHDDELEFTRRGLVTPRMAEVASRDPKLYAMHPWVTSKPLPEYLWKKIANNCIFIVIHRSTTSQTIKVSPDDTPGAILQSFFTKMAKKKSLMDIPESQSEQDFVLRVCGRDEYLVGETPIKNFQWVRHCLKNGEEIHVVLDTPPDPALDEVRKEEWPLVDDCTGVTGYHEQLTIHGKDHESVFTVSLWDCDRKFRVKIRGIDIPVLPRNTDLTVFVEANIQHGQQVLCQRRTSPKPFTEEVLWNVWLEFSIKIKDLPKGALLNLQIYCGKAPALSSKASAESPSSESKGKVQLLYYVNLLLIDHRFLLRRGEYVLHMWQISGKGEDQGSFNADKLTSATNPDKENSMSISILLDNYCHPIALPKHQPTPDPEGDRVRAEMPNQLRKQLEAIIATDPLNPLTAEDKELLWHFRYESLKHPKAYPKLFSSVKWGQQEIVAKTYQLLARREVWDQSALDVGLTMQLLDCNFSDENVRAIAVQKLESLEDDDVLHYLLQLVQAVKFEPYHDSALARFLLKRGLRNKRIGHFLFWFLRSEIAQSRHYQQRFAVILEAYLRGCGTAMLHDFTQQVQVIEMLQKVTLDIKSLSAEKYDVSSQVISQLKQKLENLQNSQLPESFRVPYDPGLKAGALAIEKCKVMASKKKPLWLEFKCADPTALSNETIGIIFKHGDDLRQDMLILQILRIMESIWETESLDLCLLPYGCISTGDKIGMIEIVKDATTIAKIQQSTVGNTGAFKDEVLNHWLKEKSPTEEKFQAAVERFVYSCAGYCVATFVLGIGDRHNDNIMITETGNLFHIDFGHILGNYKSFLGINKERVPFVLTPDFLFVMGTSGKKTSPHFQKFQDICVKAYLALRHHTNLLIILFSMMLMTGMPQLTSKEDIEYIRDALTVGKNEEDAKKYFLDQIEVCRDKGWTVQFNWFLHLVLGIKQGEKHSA
Summary of the method: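 Reactions used 5 ng enzyme with 2.5 μM diC8-PI(4,5)P2 and 25 μM ATP in 5 mM HEPES pH 7, 2.5 mM MgCl2, run 1 h at 25° C. After an EDTA quench (10 mM), 100 nM GST-GRP1 PH domain and 5 nM BODIPY-TMR-IP4 were added and fluorescence polarization was read.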

Chain of PI3K-alpha (P42336 whole entry, species assumed): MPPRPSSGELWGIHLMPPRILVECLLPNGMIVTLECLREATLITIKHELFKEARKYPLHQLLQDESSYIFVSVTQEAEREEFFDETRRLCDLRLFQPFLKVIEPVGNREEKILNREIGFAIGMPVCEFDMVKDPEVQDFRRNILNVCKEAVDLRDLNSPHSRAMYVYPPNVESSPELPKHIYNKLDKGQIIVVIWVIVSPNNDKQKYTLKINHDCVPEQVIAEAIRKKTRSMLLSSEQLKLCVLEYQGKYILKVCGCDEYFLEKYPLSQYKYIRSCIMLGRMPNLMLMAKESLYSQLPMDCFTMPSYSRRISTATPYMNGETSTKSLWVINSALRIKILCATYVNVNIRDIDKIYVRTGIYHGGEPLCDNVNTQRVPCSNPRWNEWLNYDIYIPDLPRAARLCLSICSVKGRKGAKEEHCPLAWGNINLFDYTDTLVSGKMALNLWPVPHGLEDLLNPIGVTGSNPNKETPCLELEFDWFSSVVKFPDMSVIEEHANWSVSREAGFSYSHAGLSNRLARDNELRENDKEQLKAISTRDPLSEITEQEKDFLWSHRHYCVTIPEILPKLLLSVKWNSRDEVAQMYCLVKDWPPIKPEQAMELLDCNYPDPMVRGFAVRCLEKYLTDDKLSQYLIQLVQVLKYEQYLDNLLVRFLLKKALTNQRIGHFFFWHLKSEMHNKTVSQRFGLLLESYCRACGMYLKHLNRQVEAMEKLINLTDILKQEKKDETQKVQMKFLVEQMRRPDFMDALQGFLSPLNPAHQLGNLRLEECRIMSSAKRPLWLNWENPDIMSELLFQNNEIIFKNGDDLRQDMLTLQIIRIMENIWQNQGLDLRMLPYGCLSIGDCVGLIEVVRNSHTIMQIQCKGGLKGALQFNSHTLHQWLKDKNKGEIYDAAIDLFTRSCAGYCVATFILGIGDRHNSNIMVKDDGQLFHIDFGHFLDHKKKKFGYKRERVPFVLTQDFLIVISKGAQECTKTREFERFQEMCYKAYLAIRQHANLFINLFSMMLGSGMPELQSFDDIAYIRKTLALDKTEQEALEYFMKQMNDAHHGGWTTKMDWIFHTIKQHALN
Chain of PI3K-alpha (P27986 whole entry partner, species assumed): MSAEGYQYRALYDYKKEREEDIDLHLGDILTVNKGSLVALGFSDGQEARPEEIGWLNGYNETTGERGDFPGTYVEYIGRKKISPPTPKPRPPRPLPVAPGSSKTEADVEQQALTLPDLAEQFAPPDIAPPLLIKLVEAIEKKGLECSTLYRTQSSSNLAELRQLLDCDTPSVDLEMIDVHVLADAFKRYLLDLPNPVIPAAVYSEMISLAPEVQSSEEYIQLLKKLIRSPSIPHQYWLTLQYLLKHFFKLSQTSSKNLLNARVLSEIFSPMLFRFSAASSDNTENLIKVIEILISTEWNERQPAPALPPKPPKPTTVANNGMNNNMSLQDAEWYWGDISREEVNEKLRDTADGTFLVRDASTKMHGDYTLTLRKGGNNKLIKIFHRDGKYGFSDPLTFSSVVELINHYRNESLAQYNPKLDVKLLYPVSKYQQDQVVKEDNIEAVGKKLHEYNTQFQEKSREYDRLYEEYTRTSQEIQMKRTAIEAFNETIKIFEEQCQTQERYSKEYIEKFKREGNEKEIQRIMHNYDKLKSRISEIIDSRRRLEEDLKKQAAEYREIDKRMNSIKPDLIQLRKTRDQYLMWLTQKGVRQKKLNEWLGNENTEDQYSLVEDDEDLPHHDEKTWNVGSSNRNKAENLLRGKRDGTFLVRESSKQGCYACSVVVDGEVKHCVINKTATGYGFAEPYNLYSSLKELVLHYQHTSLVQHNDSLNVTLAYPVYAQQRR

IC50 (PI3K-alpha) [µM]	IC50 (PI3K-gamma) [µM]	Compound
0.0825	0.714	COc1ccc2[nH]cc(/C=C3\Oc4cc(O)cc(CO)c4C3=O)c2c1 [Compound 517, (2Z)-6-hydroxy-4-(hydroxymethyl)-2-[(5-methoxy-1H-indol-3-yl)methylene]-1-benzofuran-3(2H)-one]
0.0006	0.0275	COc1ccc2c(c1)c(/C=C1\Oc3ccc(NC(=O)NCCN)cc3C1=O)c(-c1ccccc1)n2CCN1CCN(C)CC1 [Compound 576, 1-(2-aminoethyl)-3-[(2Z)-2-({5-methoxy-1-[2-(4-methylpiperazin-1-yl)ethyl]-2-phenyl-1H-indol-3-yl}methylene)-3-oxo-2,3-dihydro-1-benzofuran-5-yl]urea]
0.073	5.26	COc1ccc2c(c1)c(/C=C1\Oc3ccc(NC(=O)NCCO)cc3C1=O)cn2CCCN(C)C [Compound 554, 1-[(2Z)-2-({1-[3-(dimethylamino)propyl]-5-methoxy-1H-indol-3-yl}methylene)-3-oxo-2,3-dihydro-1-benzofuran-5-yl]-3-(2-hydroxyethyl)urea]
0.052	1.59	CNC(=O)Nc1ccc2c(c1)C(=O)/C(=C/c1c[nH]c3c(/C=C/CN(C)C)cc(OC)cc13)O2 [Compound 573, 1-[(2Z)-2-({7-[(1E)-3-(dimethylamino)prop-1-en-1-yl]-5-methoxy-1H-indol-3-yl}methylene)-3-oxo-2,3-dihydro-1-benzofuran-5-yl]-3-methylurea]
1.54	10.3	COc1ccc2[nH]c(C)c(C=C3Oc4c(O)cccc4C3=O)c2c1 [Example 120, 7-hydroxy-2-[(5-methoxy-2-methyl-1H-indol-3-yl)methylene]-1-benzofuran-3(2H)-one]
0.287	0.255	O=C1/C(=C/c2c(-c3ccccc3)[nH]c3ccccc23)Sc2ccccc21 [Example 274, (2Z)-2-[(2-phenyl-1H-indol-3-yl)methylene]-1-benzothiophen-3(2H)-one]
1.66	2.32	CNC(=O)Nc1ccc2c(c1)C(=O)/C(=C/c1cn(C)c3c(CCCN4CCN(C)CC4)cc(OC)cc13)O2 [Compound 572, 1-[(2Z)-2-({5-methoxy-1-methyl-7-[3-(4-methylpiperazin-1-yl)propyl]-1H-indol-3-yl}methylene)-3-oxo-2,3-dihydro-1-benzofuran-5-yl]-3-methylurea]
0.104	1.55	COc1ccc(NC(=O)Nc2ccc3c(c2)C(=O)/C(=C/c2cn(CCCN(C)C)c4ccc(OC)cc24)O3)cc1 [Compound 540, 1-[(2Z)-2-({1-[3-(dimethylamino)propyl]-5-methoxy-1H-indol-3-yl}methylene)-3-oxo-2,3-dihydro-1-benzofuran-5-yl]-3-(4-methoxyphenyl)urea]
0.163	1.13	COc1ccc2[nH]cc(/C=C3\Oc4cc(O)cc(OC)c4C3=O)c2c1 [Compound 472, (2Z)-6-hydroxy-4-methoxy-2-[(5-methoxy-1H-indol-3-yl)methylene]-1-benzofuran-3(2H)-one]
0.0011	0.026	CNCCNC(=O)Nc1ccc2c(c1)C(=O)/C(=C/c1c(C3CCCCC3)n(CCN3CCN(C)CC3)c3ccc(OC)cc13)O2 [Compound 584, 1-[(2Z)-2-({2-cyclohexyl-5-methoxy-1-[2-(4-methylpiperazin-1-yl)ethyl]-1H-indol-3-yl}methylene)-3-oxo-2,3-dihydro-1-benzofuran-5-yl]-3-[2-(methylamino)ethyl]urea]
1.27	> 10	COc1ccc2c(c1)c(/C=C1\Oc3ccc(NC(C)=O)cc3C1=O)cn2CCCN(C)C [Compound 525, N-[(2Z)-2-({1-[3-(dimethylamino)propyl]-5-methoxy-1H-indol-3-yl}methylene)-3-oxo-2,3-dihydro-1-benzofuran-5-yl]acetamide]
1.3	4.77	COc1ccc2c(c1)c(C=C1Oc3cccc(O)c3C1=O)c(C)n2CCCCN1CCN(C)CC1 [Example 135, 4-hydroxy-2-({5-methoxy-2-methyl-1-[4-(4-methylpiperazin-1-yl)butyl]-1H-indol-3-yl}methylene)-1-benzofuran-3(2H)-one]
0.0955	7.62	CNCCCNC(=O)Nc1ccc2c(c1)C(=O)/C(=C/c1cn(CCN3CCN(C)CC3)c3ccc(OC)cc13)O2 [Compound 564, 1-[(2Z)-2-({5-methoxy-1-[2-(4-methylpiperazin-1-yl)ethyl]-1H-indol-3-yl}methylene)-3-oxo-2,3-dihydro-1-benzofuran-5-yl]-3-[3-(methylamino)propyl]urea]
0.592	4.16	COc1cc(-c2cccnc2)c2c(c1)c(/C=C1\Oc3cc(O)ccc3C1=O)cn2CCCC#N [Compound 502, 4-{3-[(Z)-(6-hydroxy-3-oxo-1-benzofuran-2(3H)-ylidene)methyl]-5-methoxy-7-pyridin-3-yl-1H-indol-1-yl}butanenitrile]
0.0011	0.145	COc1ccc2c(c1)c(/C=C1\Oc3ccc(NC(=O)NCCN)cc3C1=O)c(C1CCCC1)n2CCN1CCN(C)CC1 [Compound 577, 1-(2-aminoethyl)-3-[(2Z)-2-({2-cyclopentyl-5-methoxy-1-[2-(4-methylpiperazin-1-yl)ethyl]-1H-indol-3-yl}methylene)-3-oxo-2,3-dihydro-1-benzofuran-5-yl]urea]
1.2	> 10	Cn1cc(/C=C2/Oc3cc(O)cc(O)c3C2=O)c2c(-c3ccccc3)cccc21 [Compound 557, (2E)-4,6-dihydroxy-2-[(1-methyl-4-phenyl-1H-indol-3-yl)methylene]-1-benzofuran-3(2H)-one]
0.0155	0.136	CNC(=O)Nc1ccc2c(c1)C(=O)/C(=C/c1c(C)n(CCN3CCOCC3)c3ccc(OC)cc13)O2 [Compound 608, 1-[(2Z)-2-{[5-methoxy-2-methyl-1-(2-morpholin-4-ylethyl)-1H-indol-3-yl]methylidene}-3-oxo-2,3-dihydro-1-benzofuran-5-yl]-3-methylurea]
0.0935	7.79	COc1ccc2c(c1)c(/C=C1\Oc3ccc(NC(=O)NCCCN)cc3C1=O)cn2CCN1CCN(C)CC1 [Compound 566, 1-(3-aminopropyl)-3-[(2Z)-2-({5-methoxy-1-[2-(4-methylpiperazin-1-yl)ethyl]-1Hindol-3-yl}methylene)-3-oxo-2,3-dihydro-1-benzofuran-5-yl]urea]
0.221	8.05	COc1ccc2[nH]cc(/C=C3\Oc4cc(O)c(O)cc4C3=O)c2c1 [Compound 529, (2Z)-5,6-dihydroxy-2-[(5-methoxy-1H-indol-3-yl)methylene]-1-benzofuran-3(2H)-one]
0.114	> 10	COc1ccc2c(c1)c(/C=C1\Oc3ccc(NC(=O)NCCCCN)cc3C1=O)cn2CCN1CCN(C)CC1 [Compound 565, 1-(4-aminobutyl)-3-[(2Z)-2-({5-methoxy-1-[2-(4-methylpiperazin-1-yl)ethyl]-1Hindol-3-yl}methylene)-3-oxo-2,3-dihydro-1-benzofuran-5-yl]urea]
0.674	> 10	COC(=O)NC(=O)Nc1ccc2c(c1)C(=O)/C(=C/c1c[nH]c3ccc(OC)cc13)O2 [Compound 490, methyl ({(2Z)-2-[(5-methoxy-1H-indol-3-yl)methylene]-3-oxo-2,3-dihydro-1-benzofuran-5-yl}carbamoyl)carbamate]
0.024	0.129	CNC(=O)Nc1ccc2c(c1)C(=O)/C(=C/c1c(C(=O)N(C)C)[nH]c3ccc(OC)cc13)O2 [Compound 600, 5-methoxy-N,N-dimethyl-3-[(Z)-{5-[(methylcarbamoyl)amino]-3-oxo-1-benzofuran-2(3H)-ylidene}methyl]-1H-indole-2-carboxamide]
0.0035	1.01	CNC(=O)Nc1ccc2c(c1)C(=O)/C(=C/c1c(C)n(CCCN3CCN(C)CC3)c3ccc(OC)cc13)O2 [Compound 586, 1-[(2Z)-2-({5-methoxy-2-methyl-1-[3-(4-methylpiperazin-1-yl)propyl]-1H-indol-3-yl}methylene)-3-oxo-2,3-dihydro-1-benzofuran-5-yl]-3-methylurea]
0.0045	4.22	CNC(=O)Nc1ccc2c(c1)C(=O)/C(=C/c1c(C3=CCNCC3)n(CCN3CCN(C)CC3)c3ccc(OC)cc13)O2 [Compound 607, 1-[(2Z)-2-({5-methoxy-1-[2-(4-methylpiperazin-1-yl)ethyl]-2-(1,2,3,6-tetrahydropyridin-4-yl)-1H-indol-3-yl}methylidene)-3-oxo-2,3-dihydro-1-benzofuran-5-yl]-3-methylurea]
0.222	6.49	CNC(=O)Nc1ccc2c(c1)C(=O)/C(=C/c1c[nH]c3c(CCCN4CCN(C)CC4)cc(OC)cc13)O2 [Compound 583, 1-[(2Z)-2-({5-methoxy-7-[3-(4-methylpiperazin-1-yl)propyl]-1H-indol-3-yl}methylene)-3-oxo-2,3-dihydro-1-benzofuran-5-yl]-3-methylurea]
12	> 10	COc1ccc2[nH]cc(/C=C3\Oc4ccc(-c5nnn[nH]5)cc4C3=O)c2c1 [Compound 524, (2Z)-2-[(5-methoxy-1H-indol-3-yl)methylene]-5-(1H-tetrazol-5-yl)-1-benzofuran-3(2H)-one]
0.0785	1.54	COc1ccc2c(c1)c(/C=C1\Oc3cc(O)cc(C)c3C1=O)cn2C [Compound 507, (2Z)-6-hydroxy-2-[(5-methoxy-1-methyl-1H-indol-3-yl)methylene]-4-methyl-1-benzofuran-3(2H)-one]
0.0115	0.0695	CCn1c(C)c(/C=C2\Oc3ccc(NC(=O)Nc4ccc(N(C)C)cc4)cc3C2=O)c2cc(OC)ccc21 [Compound 681, 1-[4-(dimethylamino)phenyl]-3-{(2Z)-2-[(1-ethyl-5-methoxy-2-methyl-1H-indol-3-yl)methylidene]-3-oxo-2,3-dihydro-1-benzofuran-5-yl}urea]
